Data as given in patent US20210045385A1, “PYRIDAZINONE-SUBSTITUTED KETOXIMES AS HERBICIDES” (FMC Corporation, priority 2018, published 2021).

Columns and labels:
Assay type in all cases: in vivo
rice (Oryza sativa) = experiment: Test D flooded paddy test, visual plant response rating; conditions: 250 g ai/ha, scale 0 to 100 (0 no effect, 100 complete control), 13 to 15 d
Summary of the method: (§1)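 Plants were grown to the 2-leaf stage, pots flooded to 3 cm above soil, and compound applied directly into the paddy water, with the depth held throughout. After 13 to 15 d in a greenhouse, response was rated visually against untreated controls on a 0–100 scale (0 no effect, 100 complete control).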

[1] = system: barnyardgrass (Echinochloa crus-galli); experiment: as above; conditions: 250 g ai/ha, scale 0 to 100 (0 no effect, 100 complete control), 13 to 15 d
Summary of the method: as §1

[2] = system: duck salad (Heteranthera limosa); experiment: as above; conditions: 250 g ai/ha, scale 0 to 100 (0 no effect, 100 complete control), 13 to 15 d
Summary of the method: as §1

[3] = system: sedge umbrella (small-flower umbrella sedge, Cyperus difformis); experiment: as above; conditions: 250 g ai/ha, scale 0 to 100 (0 no effect, 100 complete control), 13 to 15 d
Summary of the method: as §1

[4] = system: pigweed (Amaranthus retroflexus); experiment: Test C preemergence, visual plant response rating
Summary of the method: (§2)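 Compounds in a non-phytotoxic solvent with surfactant were applied as a directed soil spray preemergence or to 2–10 cm, one- to two-leaf plants postemergence, in loam–sand soil. After about 10 d in a greenhouse, injury was visually rated against untreated controls on a 0–100 scale (100 = complete control).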

[5] = system: foxtail, giant (giant foxtail, Setaria faberi); experiment: Test C preemergence, visual plant response rating
Summary of the method: as §2

[6] = system: Italian ryegrass (Lolium mutiflorum); experiment: Test C preemergence, visual plant response rating
Summary of the method: as §2

kochia (Bassia scoparia) [7] = experiment: Test C preemergence, visual plant response rating
Summary of the method: as §2

[8] = system: barnyardgrass (Echinochloa crus-galli); experiment: Test C preemergence, visual plant response rating
Summary of the method: as §2

[9] = system: pigweed (Amaranthus retroflexus); experiment: Test C postemergence, visual plant response rating
Summary of the method: as §2

corn (Zea mays) = experiment: Test C postemergence, visual plant response rating
Summary of the method: as §2

[10] = system: foxtail, giant (giant foxtail, Setaria faberi); experiment: Test C postemergence, visual plant response rating
Summary of the method: as §2

[11] = system: ragweed (common ragweed, Ambrosia artemisiifolia); experiment: Test C postemergence, visual plant response rating
Summary of the method: as §2

[12] = system: Italian ryegrass (Lolium mutiflorum); experiment: Test C postemergence, visual plant response rating
Summary of the method: as §2

kochia (Bassia scoparia) [13] = experiment: Test C postemergence, visual plant response rating
Summary of the method: as §2

[14] = system: galium (catchweed bedstraw, Galium aparine); experiment: Test C postemergence, visual plant response rating
Summary of the method: as §2

[15] = system: blackgrass (Alopecurus myosuroides); experiment: Test C postemergence, visual plant response rating
Summary of the method: as §2

[16] = system: wheat (Triticum aestivum); experiment: Test C postemergence, visual plant response rating
Summary of the method: as §2

[17] = system: barnyardgrass (Echinochloa crus-galli); experiment: Test C postemergence, visual plant response rating
Summary of the method: as §2

[18] = Test C, 31 g ai/ha, 0 is no effect, 100 is complete control
[19] = Test C, 125 g ai/ha, 0 is no effect, 100 is complete control
[20] = Test C, postemergence, 125 g ai/ha

Structure (SMILES)	Plant response rating, Rice (Flood) (rice (Oryza sativa))	Plant response rating, Barnyardgrass (Flood) [1]	Plant response rating, Ducksalad (Flood) [2]	Plant response rating, Sedge, Umbrella (Flood) [3]	Pigweed plant response rating (0 to 100 scale) [4, 18]	Foxtail, Giant plant response rating (0 to 100 scale) [5, 18]	Ryegrass, Italian plant response rating (0 to 100 scale) [6, 18]	Kochia plant response rating (0 to 100 scale) (kochia (Bassia scoparia) [7]; [18])	Barnyardgrass plant response rating (0 to 100 scale) [8, 18]	Pigweed plant response rating (0 to 100 scale) ([9]; Postemergence, 31 g ai/ha)	Pigweed plant response rating (0 to 100 scale) [9, 20]	Corn plant response rating (0 to 100 scale) (corn (Zea mays); Postemergence, 31 g ai/ha)	Corn plant response rating (0 to 100 scale) (corn (Zea mays); [20])	Foxtail, Giant plant response rating (0 to 100 scale) ([10]; Postemergence, 31 g ai/ha)	Foxtail, Giant plant response rating (0 to 100 scale) [10, 20]	Ragweed plant response rating (0 to 100 scale) ([11]; Postemergence, 31 g ai/ha)	Ragweed plant response rating (0 to 100 scale) [11, 20]	Ryegrass, Italian plant response rating (0 to 100 scale) ([12]; Postemergence, 31 g ai/ha)	Ryegrass, Italian plant response rating (0 to 100 scale) [12, 20]	Kochia plant response rating (0 to 100 scale) (kochia (Bassia scoparia) [13]; Postemergence, 31 g ai/ha)	further results
C#CCO/N=C(/c1c(O)c(Cl)nn(C)c1=O)c1ccc(F)c2ccccc12 [Compound 205]	0	0	0	0	80	80	20	0	70	90	100	0	40	80	100	100	100	70	100	60	Pigweed plant response rating (0 to 100 scale) [4, 19]: 100; Foxtail, Giant plant response rating (0 to 100 scale) [5, 19]: 100; Ryegrass, Italian plant response rating (0 to 100 scale) [6, 19]: 100; Kochia plant response rating (0 to 100 scale) (kochia (Bassia scoparia) [7]; [19]): 70; Barnyardgrass plant response rating (0 to 100 scale) [8, 19]: 100; Kochia plant response rating (0 to 100 scale) (kochia (Bassia scoparia) [13]; [20]): 70; Galium plant response rating (0 to 100 scale) ([14]; Postemergence, 31 g ai/ha): 80; Galium plant response rating (0 to 100 scale) [14, 20]: 90; Blackgrass plant response rating (0 to 100 scale) ([15]; Postemergence, 31 g ai/ha): 20; Blackgrass plant response rating (0 to 100 scale) [15, 20]: 80; Wheat plant response rating (0 to 100 scale) ([16]; Postemergence, 31 g ai/ha): 20; Wheat plant response rating (0 to 100 scale) [16, 20]: 70; Barnyardgrass plant response rating (0 to 100 scale) ([17]; Postemergence, 31 g ai/ha): 70; Barnyardgrass plant response rating (0 to 100 scale) [17, 20]: 90
CCCCO/N=C(\c1cc(Cl)cc(Cl)c1Cl)c1c(O)c(C)nn(C)c1=O [Compound 183]	0	0	0	0	0	40	0	0	0	0	10	0	0	30	80	20	100	40	60	0	Pigweed plant response rating (0 to 100 scale) ([4]; 125 g ai/ha): 10; Foxtail, Giant plant response rating (0 to 100 scale) ([5]; 125 g ai/ha): 100; Ryegrass, Italian plant response rating (0 to 100 scale) ([6]; 125 g ai/ha): 80; Kochia plant response rating (0 to 100 scale) (kochia (Bassia scoparia) [7]; 125 g ai/ha): 0; Barnyardgrass plant response rating (0 to 100 scale) ([8]; 125 g ai/ha): 70; Kochia plant response rating (0 to 100 scale) (kochia (Bassia scoparia) [13]; [20]): 10; Galium plant response rating (0 to 100 scale) ([14]; Postemergence, 31 g ai/ha): 10; Galium plant response rating (0 to 100 scale) [14, 20]: 30; Blackgrass plant response rating (0 to 100 scale) ([15]; Postemergence, 31 g ai/ha): 0; Blackgrass plant response rating (0 to 100 scale) [15, 20]: 0; Wheat plant response rating (0 to 100 scale) ([16]; Postemergence, 31 g ai/ha): 0; Wheat plant response rating (0 to 100 scale) [16, 20]: 0; Barnyardgrass plant response rating (0 to 100 scale) ([17]; Postemergence, 31 g ai/ha): 0; Barnyardgrass plant response rating (0 to 100 scale) [17, 20]: 40
